Assay results from patent US9504676B2, “Molecules inhibiting a metabolic pathway involving the Syk protein tyrosine kinase and method for identifying said molecules” (CENTRE NATIONAL DE LA RECHERCHE SCIENTIFIQUE, priority 2008, dated 2016).
In brackets after ≈: the same amount, converted by molar mass. Where two headings read alike, the source gives them in different places.

Legend:
[1] = biological target: T1, murine Syk tyrosine kinase protein (GST:Syk 6-242) (Mus musculus, UniProt P48025); test: ADA method: displacement of the binding of scFv G4G11 with Syk (ELISA); conditions: read-out: In vit. inhib.: mean inhibition % of the binding of scFv G4G11 with Syk in the ADA method
T1 construct: made in house
Text: The term “percentage of inhibition” of the binding of an antibody or antibody fragment with Syk protein, particularly refers to the ratio […], where A consists of the intensity of a signal proportional to the quantity of an antibody or antibody fragment bound with Syk protein in the absence of a molecule according to the invention and B the intensity of the same signal in the presence of a molecule according to the invention under the same conditions. […] This test may be performed for example according to the protocol described in example 3-2) hereinafter.
The inventors developed the ADA (Antigen Displacement Assay) method to identify small molecules capable of displacing the association with scFv G4G11 with Syk. […] To understand the mode of action of C-13, the inventors firstly identified the binding site of G4G11 using the SPOT method^16. An epitope located on the N-terminal SH2 domain of Syk, comprising amino acids 65-74 and 100% preserved in mouse, rat and human sequences, was identified.
The ADA method was then applied to each of these […] molecules to measure the ability thereof to inhibit the binding of scFv G4G11 with Syk.
(§1) • 1) Chemical products and antibodies. A chemical bank of 3000 molecules (a varied subset) was acquired from ChemBridge, Inc. (San Diego, Calif.). Stocks of solutions of small molecules were prepared at a rate of 10 mM in DMSO (dimethylsulphoxide), except for C-13 (methyl 2-{5-[(3-benzyl-4-oxo-2-thioxo-1,3-thiazolidin-5-ylidene)methyl]-2-furyl}benzoate, ChemBridge ID No. 6197026) prepared in DMF (dimethylformamide). Unless specified otherwise, all the reagents were supplied by Sigma. Dinitrophenyl (DNP) hapten was acquired from Calbiochem. Sepharose GammaBind G and all the secondary antibodies were supplied by GE Health Amersham Biosciences. The anti-Syk, anti-Lyn, anti-Btk, anti-PLC-γ1, anti-PLC-γ2, anti-LAT, anti-SLP-76, anti-p38, anti-JNK, anti-Vav, anti-Akt1 and 9E10 antibodies conjugated with HRP were acquired from Santa Cruz Biotechnology. The anti-phospho-p44/42 MAP Kinase, anti-p44/42 MAP Kinase, anti-phospho-p38, anti-phospho-JNK, anti-phospho-Akt1 antibodies were acquired from Cell Signaling. The anti-phospho-LAT and anti-phospho-PLC-γ1 antibodies were supplied by Biosource and the anti-phospho-SLP-76 antibodies by BD Pharmingen. The 4G10 anti-phosphotyrosine monoclonal antibody was acquired from Upstate Biotechnology. • 2) ADA method: ELISA type high-speed molecule screening test, based on antibody displacement (WO 2005106481). The recombinant fusion protein GST:Syk 6-242^8 comprising the residues 6 to 242 of murine Syk tyrosine kinase protein illustrated in FIG. 8B (SEQ ID No. 4) was immobilised on an ELISA plate at a final concentration of 10 μg ml^−1. For the screening of the chemical molecule bank, the small molecules, diluted in PBS at a final concentration of 10 μM were added to the wells for one hour at ambient temperature, before adding the fragment scFv G4G11 at a final concentration of 100 nM for an additional hour. The binding of G4G11 with Syk was assessed by adding the 9E10 monoclonal antibody conjugated with HRP detecting the amino acid sequence EQKLISEEDLN of human c-myc protein located at the C-terminal end of the scFv fragment. To generate Syk mutants, targeted mutagenesis was used on GST:Syk 6-242 protein and the binding of G4G11 with the mutants was assessed in the presence of 5 μM of C-13. • 3) Cells, culture conditions and functional tests. Anti-DNP 2682-I mouse monoclonal antibody was used as the culture supernatant of hybridomas containing 1 μg/ml of IgE. Femoral bone marrow cells were sampled and cultured in Opti-MEM medium (Gibco) supplemented with 10% foetal calf serum and 4% X63 transfectant supernatant secreting murine IL-3. RBL-2H3 (ATCC) leukaemic rat basophil cells were maintained in a single-layer culture in RPMI 1640 medium supplemented with 10% foetal calf serum (Gibco). […]

RBL-2H3 cells = test: cells; format: cell-based, rat; conditions: Rattus norvegicus
Description: These 87 molecules were also tested in vitro to assess the ability thereof to inhibit RBL-2H3 cell degranulation (see table 1).
as §1, with “(Gibco). Measurements of β-hexosaminidase released by the RBL-2H3 cells were performed as described previously^7, except that, after 12-16 hours of incubation with anti-DNP IgE (0.5 μg/ml), the cells were incubated for 90 min at 37° C. in RPMI medium supplemented with the specified concentrations of C-13 or DMF (0.25%). The cells were stimulated for 45 min with DNP-BSA (50 ng ml^−1) or ionomycin (1.5 μM). The BMMC cells were incubated for one hour at 37° C. with anti-DNP IgE (100 ng/ml). They were then incubated with C-13 (3 μM) or DMF (0.3%) for 3 hours at 37° C., and stimulated with varied concentrations of DNP-BSA. The level of β-hexosaminidase released was measured 10 min later and the TNF-α titration was performed by means of a cytotoxicity test on L929 cells as described previously^10, 3 hours after stimulation. The results illustrated in FIG. 3 are representative of three independent experiments. • 4) Immunoprecipitations, in vitro kinase assays and immunodetection.” for “(Gibco).”

[2] = small molecules at 10 μM, scFv G4G11 100 nM
[3] = RBL-2H3 cells, read-out: Degran. IC50: concentration inhibiting mast cell degranulation by 50%

SMILES | inhibition at 10 µM [1, 2] | IC50 (RBL-2H3 cells; [3]) | inhibition at 10 µM [1] | IC50 (RBL-2H3 cells; RBL-2H3, read-out: Degran. IC50: concentration inhibiting mast cell degranulation by 50%)
COc1cc(C2C(C(=O)c3ccc(C)o3)=C(O)C(=O)N2CCN(C)C)cc(OC)c1OC (stereo not shown) [Molecule 52, 1-[2-(dimethylamino)ethyl]-3-hydroxy-4-(5-methyl-2-furoyl)-5-(3,4,5-trimethoxyphenyl)-1,5-dihydro-2H-pyrrol-2-one] | 46% | > 10 µg/mL |  | 
N#CC1=C(N)Oc2[nH]nc(-c3ccccc3)c2C1c1cccc(OC(=O)c2ccco2)c1 (stereo not shown) [Molecule 57, 3-(6-amino-5-cyano-3-phenyl-1,4-dihydropyrano[2,3-c]pyrazol-4-yl)phenyl 2-furoate] | 42% | > 10 µg/mL |  | 
CC(C)c1ccc(C2C(C(=O)c3ccc(F)cc3)=C(O)C(=O)N2CCN2CCOCC2)cc1 (stereo not shown) [Molecule 45, 4-(4-fluorobenzoyl)-3-hydroxy-5-(4-isopropylphenyl)-1-[2-(4-morpholinyl)ethyl]-1,5-dihydro-2H-pyrrol-2-one] | 48.5% | > 10 µg/mL |  | 
CCN(CC)CCN1C(=O)C(O)=C(C(=O)c2ccc(C)cc2)C1c1cc(OC)ccc1OC (stereo not shown) [Molecule 28, 1-[2-(diethylamino)ethyl]-5-(2,5-dimethoxyphenyl)-3-hydroxy-4-(4-methylbenzoyl)-1,5-dihydro-2H-pyrrol-2-one] | 54% | > 10 µg/mL |  | 
O=C(C1=C(O)C(=O)N(CCCN2CCOCC2)C1c1ccncc1)c1ccc2c(c1)OCCO2 (stereo not shown) [Molecule 83, 4-(2,3-dihydro-1,4-benzodioxin-6-ylcarbonyl)-3-hydroxy-1-[3-(4-morpholinyl)propyl]-5-(4-pyridinyl)-1,5-dihydro-2H-pyrrol-2-one] | 19% | ~10 µg/mL (≈ 21.5 µM) |  | 
O=C(Nc1cccc2ccccc12)OCCn1nnnc1C1(N2CCOCC2)CCCCC1 [Molecule 76, 2-{5-[1-(4-morpholinyl)cyclohexyl]-1H-tetrazol-1-yl}ethyl 1-naphthylcarbamate] | 27% | > 10 µg/mL |  | 
CCOC(=O)C1=C(c2ccccc2)NC(SCC(=O)Nc2cccc(OC)c2)=C(C#N)C1c1ccco1 (stereo not shown) [Molecule 55, ethyl 5-cyano-4-(2-furyl)-6-({2-[(3-methoxyphenyl)amino]-2-oxoethyl}thio)-2-phenyl-1,4-dihydro-3-pyridine carboxylate] | 42.5% | ~5 µg/mL (≈ 9.7 µM) |  | 
CCN1C2=C(C(=O)CCC2)C(c2ccc(OCc3ccc(C)cc3)c(Cl)c2)C2=C1CCCC2=O [Molecule 79] | 25% | > 10 µg/mL |  | 
CSc1nnc2c(n1)OC(c1cccc(OCc3ccccc3)c1)N(C(C)=O)c1ccccc1-2 (stereo not shown) [Molecule 63, 7-acetyl-6-[3-(benzyloxy)phenyl]-3-(methylthio)-6,7-dihydro [1,2,4] triazino[5,6-d][3,1] benzoxazepine] | 38.5% | ~5 µg/mL (≈ 10.6 µM) |  | 
COc1ccc(OC)c(C2C(C(=O)c3ccc(C)cc3)=C(O)C(=O)N2Cc2cccnc2)c1 (stereo not shown) [Molecule 11, 5-(2,5-dimethoxyphenyl)-3-hydroxy-4-(4-methylbenzoyl)-1-(3-pyridinylmethyl)-1,5-dihydro-2H-pyrrol-2-one] | 70.5% | > 10 µg/mL |  | 
COc1cccc(C2C(C(=O)c3ccc(Cl)cc3)=C(O)C(=O)N2CCN2CCOCC2)c1 (stereo not shown) [Molecule 71, 4-(4-chlorobenzoyl)-3-hydroxy-5-(3-methoxyphenyl)-1-[2-(4-morpholinyl)ethyl]-1,5-dihydro-2H-pyrrol-2-one] | 29% | > 10 µg/mL |  | 
O=C(O)CCC(=O)N(Cc1ccccc1)Cc1cn(-c2ccccc2)nc1-c1cccs1 [Molecule 23, 4-(benzyl{[1-phenyl-3-(2-thienyl)-1H-pyrazol-4-yl]methyl}amino)-4-oxo butanoic acid] | 57% | > 10 µg/mL |  | 
Cc1cc(C)cc(N(CC(=O)N2CCN(Cc3ccccc3)CC2)S(=O)(=O)c2ccccc2)c1 [Molecule 40, N-[2-(4-benzyl-1-piperazinyl)-2-oxoethyl]-N-(3,5-dimethylphenyl)benzenesulphonamide] |  |  | 49.5% | > 10 µg/mL
O=C(C1=C(O)C(=O)N(CCCN2CCOCC2)C1c1ccccc1F)c1ccc2c(c1)OCO2 (stereo not shown) [Molecule 68, 4-(1,3-benzodioxol-5-ylcarbonyl)-5-(2-fluorophenyl)-3-hydroxy-1-[3-(4-morpholinyl)propyl]-1,5-dihydro-2H-pyrrol-2-one] | 30% | ~10 µg/mL (≈ 21.3 µM) |  | 
